Assay results published in patent US10265328B2, “C-19 steroids for specific therapeutic uses” (Procima GmbH, priority 2007, dated 2019).
“Also recorded” adds a separate entry of the source.

Legend:
[1] = target: T1, androgen receptor (AR) (Homo sapiens, UniProt P10275); assay: binding affinity to the androgen receptor compared with DHT
T1 sequence (P10275 1-920): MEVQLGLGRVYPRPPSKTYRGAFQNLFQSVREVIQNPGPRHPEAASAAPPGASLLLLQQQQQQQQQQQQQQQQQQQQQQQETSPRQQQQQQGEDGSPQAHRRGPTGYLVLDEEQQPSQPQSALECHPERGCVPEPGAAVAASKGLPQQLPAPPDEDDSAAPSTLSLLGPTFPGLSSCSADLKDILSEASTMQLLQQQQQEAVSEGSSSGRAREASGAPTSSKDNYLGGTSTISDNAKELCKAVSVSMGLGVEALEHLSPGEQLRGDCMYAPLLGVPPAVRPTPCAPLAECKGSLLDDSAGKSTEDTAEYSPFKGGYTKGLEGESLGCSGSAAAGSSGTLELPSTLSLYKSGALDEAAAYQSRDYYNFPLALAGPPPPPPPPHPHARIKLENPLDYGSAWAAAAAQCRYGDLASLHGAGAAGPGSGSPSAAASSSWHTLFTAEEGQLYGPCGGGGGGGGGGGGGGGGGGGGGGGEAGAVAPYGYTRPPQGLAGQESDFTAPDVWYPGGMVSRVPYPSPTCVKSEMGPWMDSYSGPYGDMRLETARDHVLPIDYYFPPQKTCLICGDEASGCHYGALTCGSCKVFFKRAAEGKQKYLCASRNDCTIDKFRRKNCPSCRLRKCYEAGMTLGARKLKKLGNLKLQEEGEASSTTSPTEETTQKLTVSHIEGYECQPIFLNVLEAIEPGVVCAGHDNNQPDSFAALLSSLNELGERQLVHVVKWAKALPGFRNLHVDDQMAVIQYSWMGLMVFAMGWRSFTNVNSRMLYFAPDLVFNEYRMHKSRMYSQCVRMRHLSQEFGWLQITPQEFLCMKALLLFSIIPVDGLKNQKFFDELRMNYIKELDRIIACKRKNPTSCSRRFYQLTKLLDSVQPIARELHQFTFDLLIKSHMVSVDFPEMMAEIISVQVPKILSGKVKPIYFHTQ
Procedure: The compounds used according to the present invention preferably have a binding affinity to the androgen receptor (AR) higher than DHT; more preferably the binding affinity is high by having affinity specific to AR in a range of IC50≤500 nM, preferably IC50≤100 nM and more preferably IC50≤50 nM, wherein IC50 is defined as the concentration of the compound required to reduce specific binding of a reference compound, 5α-dihydrotestosterone (DHT), by 50%. The IC50-values can be determined by known methods using radioactively labelled DHT as reference compound, for example by a standard dextran-coated charcoal adsorption method as described by Raynaud et al., J. Steroid Biochem. 6, 615-622 (1975), using 1 nM reference concentrations of radiolabeled [^3H]-DHT, or by similar IC50 determination methods described in the literature. Because the concentration of AR in the target cell is very low, typically in the nanomolar range approximately, differences in binding constants to the order contemplated in the present invention are significant.

[2] = test system: skin; assay: topical application of a 4-OHT preparation to the skin over cellulite predilection areas; format: in vivo
Description: Not only in theory but also in practice the compounds of the present invention and in particular 4-OHT and its related analogous compounds are the ideal anabolic substances. […] This can be deduced from topical applications to the skin.
The border between the two layers is made up of collagen fibres. Strengthening this border by increasing its collagen content by stimulating the fibroblasts to produce more collagen leads to a marked improvement of the appearance of cellulite.
A topical formulation containing a compound according to the present invention such as 4-OHT or an analogous compound can increase the collagen content of the skin via stimulation of the fibroblasts. […] It is reasonable to assume that 4-OHT has solely anabolic effects. […] Apparently is 4-OHT unable to exert any androgenic effects such as hair growth or pimples.

[3] = test system: breast cancer cells; assay: growth of breast cancer cells in culture; format: cell-based; conditions: certain breast cancer cells in culture
Description: A further promising concept is based on a comparative evaluation between DHT and the compounds of the present invention. […] This effect may readily hold also true for hormone independent cancer.

[4] = test system: 5α-reductase; assay: 5α-reduction of the compound
[5] = target: T2, aromatase (Homo sapiens, UniProt P11511); assay: aromatization of the compound
T2 sequence (P11511 1-503): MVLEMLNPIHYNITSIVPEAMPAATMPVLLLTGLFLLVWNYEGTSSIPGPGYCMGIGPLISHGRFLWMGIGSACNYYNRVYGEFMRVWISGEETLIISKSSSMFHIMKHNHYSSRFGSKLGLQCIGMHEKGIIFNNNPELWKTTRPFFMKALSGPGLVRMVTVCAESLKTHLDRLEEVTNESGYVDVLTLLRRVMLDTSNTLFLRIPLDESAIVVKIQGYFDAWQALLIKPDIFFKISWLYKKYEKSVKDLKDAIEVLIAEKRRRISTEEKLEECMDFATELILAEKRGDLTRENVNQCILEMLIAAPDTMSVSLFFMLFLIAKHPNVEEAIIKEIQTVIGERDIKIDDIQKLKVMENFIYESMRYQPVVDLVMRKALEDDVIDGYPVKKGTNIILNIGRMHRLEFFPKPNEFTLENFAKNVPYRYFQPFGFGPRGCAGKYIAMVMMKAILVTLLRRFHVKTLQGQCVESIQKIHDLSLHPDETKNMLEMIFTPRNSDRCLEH

[6] = test system: variant of the human prostate cancer cell line LNCaP; conditions: cited from earlier work
[7] = test system: prostate cancer; conditions: 5 mg/day for 7 years vs placebo, men over 55 years, PSA less than 3.0 ng/ml; cited from earlier work
[8] = topical treatment over predilection areas of cellulite, within four weeks

Compound	binding affinity to the AR relative to DHT [1]	androgenic effect on the skin (hair growth, pimples) ([2]; after application to the skin)	concentration of collagen fibres in the skin ([2]; topical application to the skin)	topical formulation compared with 4-OHA ([2]; topical formulation, collagen content of the skin)	adipocytes entrapped in the mesh of collagen fibres [2, 8]	solidification of the skin [2, 8]	growth of breast cancer cells in culture [3]	5α-reduction [4]	aromatization [5]	proliferation of LNCaP variant [6]	reduction of prostate cancers in the treatment arm [7] [%]
C[C@]12CC[C@H]3[C@@H](CCC4=C(O)C(=O)CC[C@@]43C)[C@@H]1CC[C@@H]2O [4-OHT, 4,17β-dihydroxyandrost-4-en-3-one]	higher affinity to the AR than DHT	no androgenic effect whatsoever could be observed	anabolically increases the concentration of collagen fibres; also recorded: drastic augmentation of collagen fibres	superior than 4-OHA	marked diminution and shrinkage of the adipocytes	considerable solidification of the skin	even more effective	escapes aromatization or 5α-reduction	escapes aromatization	–	–
C[C@]12CCC(=O)C[C@@H]1CC[C@@H]1[C@@H]2CC[C@]2(C)[C@@H](O)CC[C@@H]12 [DHT, dihydrotestosterone, reference compound]	–	–	–	–	–	–	able to abolish the growth	–	–	inhibits the proliferation	–
CC(C)(C)NC(=O)[C@H]1CC[C@H]2[C@@H]3CC[C@H]4NC(=O)C=C[C@]4(C)[C@H]3CC[C@]12C [finasteride]	–	–	–	–	–	–	–	–	–	–	25
